Test results published in PMC8754100, “Role of Hepatocyte- and Macrophage-Specific PPARγ in Hepatotoxicity Induced by Diethylhexyl Phthalate in Mice” (Environmental Health Perspectives, 2022).

Biological target: T1, PPARα (Homo sapiens, UniProt Q07869)
T1 construct: gene PPARA
T1 sequence (Q07869 1-468): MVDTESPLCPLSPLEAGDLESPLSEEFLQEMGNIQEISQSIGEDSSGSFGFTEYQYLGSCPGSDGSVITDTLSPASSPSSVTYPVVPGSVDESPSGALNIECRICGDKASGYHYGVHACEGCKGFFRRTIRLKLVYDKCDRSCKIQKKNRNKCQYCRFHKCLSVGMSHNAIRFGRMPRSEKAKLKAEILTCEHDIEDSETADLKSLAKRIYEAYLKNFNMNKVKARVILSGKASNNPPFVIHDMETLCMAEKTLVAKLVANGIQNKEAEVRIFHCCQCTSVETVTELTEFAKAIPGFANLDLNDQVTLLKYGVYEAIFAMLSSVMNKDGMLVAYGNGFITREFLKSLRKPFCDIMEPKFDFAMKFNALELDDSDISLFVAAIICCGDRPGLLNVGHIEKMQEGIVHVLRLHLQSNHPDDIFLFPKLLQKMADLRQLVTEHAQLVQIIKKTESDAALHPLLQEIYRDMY
Assay: SPR (OpenSPR) with recombinant human PPARα immobilized by amine coupling
Format: binding

## CCCCC(CC)COC(=O)c1ccccc1C(=O)O (stereo not shown) [MEHP, mono(2-ethylhexyl) phthalate]
  Kd: 627 µM
